A short description of this data set: stability of linker-payload under acidic sample work-up and analysis (MS / RP-HPLC). Format: physicochemical. As to conditions: note to FIG. 26. The procedure: Note: *BCN-HS-PEG2-va-PABC-PBD is not stable under the acidic conditions used in sample work-up and analysis. Therefore, some peak broadening is observed, so conversion was determined by the amount of starting material left.
Prior to RP-HPLC analysis, IgG (10 μL, 1 mg/mL in PBS pH 7.4) was added to 12.5 mM DTT, 100 mM TrisHCl pH 8.0 (40 μL) and incubated for 15 minutes at 37° C. The reaction was quenched by adding 49% acetonitrile, 49% water, 2% formic acid (50 μL). RP-HPLC analysis was performed on an Agilent 1100 series (Hewlett Packard). The sample (10 μL) was injected with 0.5 mL/min onto Bioresolve RP mAb 2.1*150 mm 2.7 μm (Waters) with a column temperature of 70° C. A linear gradient was applied in 16.8 minutes from 30 to 54% acetonitrile in 0.1% TFA and water.
Prior to mass spectral analysis, IgG was treated with IdeS, which allows analysis of the Fc/2 fragment. For analysis of the Fc/2 fragment, a solution of 20 μg (modified) IgG was incubated for 1 hour at 37° C. with IdeS/Fabricator™ (1.25 U/μL) in PBS pH 6.6 in a total volume of 10 μL. Samples were diluted to 80 μL followed by analysis electrospray ionization time-of-flight (ESI-TOF) on a JEOL AccuTOF. Deconvoluted spectra were obtained using Magtran software.

On to BCN-HS-PEG2-va-PABC-PBD, for which the “stability under the acidic conditions used in sample work-up and analysis” value was “not stable”.

The values are drawn from US20230405143A1, “TYROSINE-BASED ANTIBODY CONJUGATES” (Synaffix B.V., priority 2020, published 2023).
